# System: acute thrombocytopenia
# Experiment: Inhibitory effect on acute thrombocytopenia in mice (ADP-induced)
# Type: in vivo, male ICR mice
# Settings: 300 mg/kg by gavage 2 hours prior to ADP (1 mg/kg, tail vein); platelet count at 30 seconds after ADP
# Procedure: Experiment [Inhibitory effect on acute thrombocytopenia in mice]
# Ten male ICR mice weighing 20-30 g were used for each group. Under pentobarbital anaesthesia, adenosine diphosphate (ADP) dissolved in physiological saline in a dose of 1 mg/kg was injected into the tail vein and 20 μl of blood was collected from the femoral artery at 30 seconds after injection of ADP. Immediately after blood sampling, platelet counts were measured with an automatic blood cell counter (Sysmex CC-180A). Platelet count of normal group without injection of ADP was measured as well.
# Test drugs [Compounds 2 and 3 (the compounds of the present invention) and Compound 1 (the comparative drug) in Table 1] were suspended in 5% gum arabic solution and administered by gavage in a dose of 300 mg/kg 2 hours prior to injection of ADP. As control group, 5% gum arabic solution without test drugs was administered.
# Inhibition ratio of acute thrombocytopenia was calculated by the following formula. [formula]
# Note: A: Platelet count of the group treated with both test drug and ADP
# B: Platelet count of control group with both 5% gum arabic solution and ADP
# C: Platelet count of normal group without injection of ADP
row,SMILES,Inhibition Ratio [%]
1,"COc1ccc(N2C(=O)/C(=C/C(C)=NOCCCN3CCOCC3)C2c2ccccc2)cc1 (stereo not drawn) [Compound 2, (E)-1-(4-Methoxyphenyl)-3-{2-[3-(4-morpholinyl)propoxyimino]propylidene}-4-phenyl-2azetidinone]",54.66
2,"COc1ccc(N2C(=O)/C(=C/C(C)=NOCCCN3CCN(c4ccccn4)CC3)C2c2ccccc2)cc1 (stereo not drawn) [Compound 3, (E)-1-(4-Methoxyphenyl)-3-[2-[3-{1-[4-(2-pyridyl)piperadinyl]}propoxyimino]-propylidene]-4-phenyl-2-azetidinone]",57.61
3,"COc1ccc(N2C(=O)/C(=C/C(C)=NOCC(=O)O)C2c2ccccc2)cc1 (stereo not drawn) [Compound 1, (E)-1-(4-Methoxyphenyl)-3-(2-carboxymethoxyiminopropylidene)-4-phenyl-2-azetidinone, reference compound]",12.00

# From US4952689A, “3-(substituted propylidene)-2-azetidinone derivates for blood platelet aggregation” (Taisho Pharmaceutical Co., Ltd., priority 1988, dated 1990)
